Key:
Type in all cases: in vivo
Spodoptera frugiperda = Spodoptera frugiperda spray test (SPODFR); conditions: for efficacy / pest or weed control at 100 g/ha: application rate 100 g/ha, spray, after 7 days; for pest or weed control at 100 g/ha: read-out: efficacy
Method: Spodoptera frugiperda—Spray Test
(§1) To produce a suitable active ingredient formulation, 1 part by weight of active ingredient is dissolved with the specified parts by weight of solvent and made up to the desired concentration with water containing an emulsifier concentration of 1000 ppm. To produce further test concentrations, the formulation is diluted with emulsifier-containing water.
Leaf discs of maize (Zea mays) are sprayed with an active ingredient formulation of the desired concentration and, after drying, populated with caterpillars of the armyworm (Spodoptera frugiperda).
After 7 days, the efficacy in % is determined. 100% means that all the caterpillars have been killed; 0% means that no caterpillar has been killed.
Spodoptera frugiperda—Spray Test (SPODFR)
as §1, with “compound” for “ingredient”
Leaf discs of maize (Zea mays) are sprayed with an active compound formulation of the desired concentration and, after drying, populated with caterpillars of the armyworm (Spodoptera frugiperda).
After the desired time, the efficacy in % is determined. 100% means that all the caterpillars have been killed; 0% means that no caterpillar has been killed.

Phaedon cochleariae = Phaedon cochleariae spray test (PHAECO); conditions: for efficacy / pest or weed control at 100 g/ha: application rate 100 g/ha, spray, after 7 days; for pest or weed control at 100 g/ha: read-out: efficacy
Method: Phaedon cochleariae—Spray Test
as §1
After 7 days, the efficacy in % is determined. 100% means that all the beetle larvae have been killed; 0% means that no beetle larvae have been killed.
Phaedon cochleariae—Spray Test (PHAECO)
as §1, with “compound” for “ingredient”
Discs of Chinese cabbage leaves (Brassica pekinensis) are sprayed with an active compound formulation of the desired concentration and, after drying, populated with larvae of the mustard beetle (Phaedon cochleariae).
After the desired time, the efficacy in % is determined. 100% means that all the beetle larvae have been killed; 0% means that no beetle larvae have been killed.

Tetranychus urticae = Tetranychus urticae spray test, OP-resistant (TETRUR); conditions: for efficacy: spray, after 6 days
Method: Tetranychus urticae—Spray Test, OP-Resistant
as §1
Discs of bean leaves (Phaseolus vulgaris) infested with all stages of the greenhouse red spider mite (Tetranychus urticae) are sprayed with an active compound preparation of the desired concentration.
After 6 days, the efficacy in % is determined. 100% means that all the spider mites have been killed; 0% means that no spider mites have been killed.
Tetranychus urticae—Spray Test; OP-Resistant (TETRUR)
as §1, with “compound” for “ingredient”
Discs of bean leaves (Phaseolus vulgaris) infested with all stages of the greenhouse red spider mite (Tetranychus urticae) are sprayed with an active compound formulation of the desired concentration.
After the desired time, the efficacy in % is determined. 100% means that all the spider mites have been killed; 0% means that no spider mites have been killed.

Myzus persicae = Myzus persicae spray test (MYZUPE)
Method: Myzus persicae—Spray Test
as §1
Discs of Chinese cabbage leaves (Brassica pekinensis) infested by all stages of the green peach aphid (Myzus persicae) are sprayed with an active compound preparation of the desired concentration.
After 5 days, the efficacy in % is determined. 100% means that all the aphids have been killed; 0% means that no aphids have been killed.
Myzus Persicae—Spray Test (MYZUPE)
as §1, with “compound” for “ingredient”
Discs of Chinese cabbage leaves (Brassica pekinensis) infested with all stages of the green peach aphid (Myzus persicae) are sprayed with an active compound formulation of the desired concentration.
After the desired time, the efficacy in % is determined. 100% means that all the aphids have been killed; 0% means that no aphids have been killed.

Boophilus microplus = Boophilus microplus injection test; conditions: application rate 20 μg/animal, assessed after 7 days by laying of fertile eggs
Method: Boophilus microplus—Injection Test
(§2) Solvent: dimethyl sulfoxide
To produce a suitable active compound preparation, 10 mg of active compound are mixed with 0.5 ml of solvent and the concentrate is diluted to the desired concentration with solvent.
1 μl of the active ingredient solution is injected into the abdomen of 5 engorged adult female cattle ticks (Boophilus microplus). The animals are transferred into dishes and kept in a climate-controlled room.
(§3) Efficacy is assessed after 7 days by laying of fertile eggs. Eggs which are not visibly fertile are stored in a climate-controlled cabinet until the larvae hatch after about 42 days. An efficacy of 100% means that none of the ticks has laid any fertile eggs; 0% means that all the eggs are fertile.

Musca domestica = Musca domestica test; conditions: application rate 100 ppm, adult houseflies, after 2 days
Method: as §2
(§4) To produce a suitable active ingredient formulation, 10 mg of active ingredient are mixed with 0.5 ml of dimethyl sulfoxide, and the concentrate is diluted with water to the desired concentration.
Vessels containing a sponge treated with sugar solution and the active ingredient formulation of the desired concentration are populated with 10 adult houseflies (Musca domestica).
After 2 days, the rate of extermination in % is determined. 100% means that all of the flies have been killed; 0% means that none of the flies have been killed.

[1] = system: cattle ticks (Boophilus microplus) Parkhurst strain, SP-resistant; assay: Boophilus microplus dip test; conditions: application rate 100 ppm, assessed after 7 days by laying of fertile eggs
Method: Boophilus microplus—Dip Test
Test animals: cattle ticks (Boophilus microplus) Parkhurst strain, SP-resistant
as §2
10 mg of active ingredient are dissolved in 0.5 ml of dimethyl sulfoxide. To produce a suitable formulation, the active ingredient solution is diluted with water to the concentration desired in each case. This active ingredient formulation is pipetted into tubes. 8-10 engorged adult female cattle ticks (Boophilus microplus) are transferred into a further tube with holes. The tube is immersed into the active ingredient formulation, and all the ticks are completely wetted. After the liquid has run out, the ticks are transferred on filter discs into plastic dishes and stored in a climate-controlled room.
as §3

Rhipicephalus sanguineus = Rhipicephalus sanguineus in vitro contact test with adult brown dog ticks; conditions: application rate 5 μg/cm^2 (=500 g/ha), after 48 h, adult dog ticks dead or moribund
Method: Rhipicephalus sanguineus—In Vitro Contact Tests with Adult Brown Dog Ticks
For the coating of the test tubes, 9 mg of active ingredient are first dissolved in 1 ml of acetone p.a. and then diluted to the desired concentration with acetone p.a. 250 μl of the solution are distributed homogeneously on the inner walls and the base of a 25 ml glass tube by turning and rocking on an orbital shaker (rocking rotation at 30 rpm for 2 h). With 900 ppm of active ingredient solution and internal surface area 44.7 cm^2, given homogeneous distribution, an area-based dose of 5 μg/cm^2 is achieved.
After the solvent has evaporated off, the tubes are populated with 5-10 adult dog ticks (Rhipicephalus sanguineus), sealed with a perforated plastic lid and incubated in a horizontal position in the dark at room temperature and ambient humidity. After 48 h, efficacy is determined. To this end, the ticks are knocked to the base of the tube and incubated on a hotplate at 45-50° C. for not more than 5 min. Ticks which remain motionless on the base or move in such an uncoordinated manner that they are unable to deliberately avoid the heat by climbing upwards are considered to be dead or moribund.
An efficacy of 100% means that all the ticks were dead or moribund. 0% efficacy means that none of the ticks were harmed.

Ctenocephalides felis = Ctenocephalides felis oral test; conditions: application rate 100 ppm in citrated cattle blood, after 2 days
Method: Ctenocephalides felis—Oral Test
as §2
To produce a suitable active ingredient formulation, 10 mg of active ingredient are mixed with 0.5 ml of dimethyl sulfoxide. Dilution with citrated cattle blood gives the desired concentration.
About 20 unfed adult cat fleas (Ctenocephalides felis) are placed into a chamber which is closed at the top and bottom with gauze. A metal cylinder whose bottom end is closed with parafilm is placed onto the chamber. The cylinder contains the blood/active ingredient formulation, which can be imbibed by the fleas through the parafilm membrane.
After 2 days, the rate of extermination in % is determined. 100% means that all of the fleas have been killed; 0% means that none of the fleas have been killed.

Lucilia cuprina = Lucilia cuprina test; conditions: application rate 100 ppm, L1 larvae, after 2 days
Method: as §2, §4
About 20 L1 larvae of the Australian sheep blowfly (Lucilia cuprina) are transferred into a test vessel containing minced horsemeat and the active compound preparation of the desired concentration.
After 2 days, the rate of extermination in % is determined. 100% means that all the larvae have been killed; 0% means that no larvae have been killed.

Compound | efficacy (Spodoptera frugiperda) | efficacy (Boophilus microplus) | efficacy (rate of extermination) (Musca domestica) | efficacy (Phaedon cochleariae) | efficacy (rate of extermination) (Ctenocephalides felis) | efficacy (rate of extermination) (Lucilia cuprina) | other results
CS(=O)(=O)NC(=O)c1csc(-c2cnn(-c3cccnc3)c2)n1 [Example No. 36 WO2012/000896, reference compound] | – | – | – | – | – | – | Emax at 500 g/ha (Spodoptera frugiperda; Spodoptera frugiperda, 168 h, SPODFR, 500 g ai/ha, 7 dat, read-out: % efficacy dat): 0%; Emax at 500 g/ha (Phaedon cochleariae; Phaedon cochleariae, 168 h, PHAECO, 500 g ai/ha, 7 dat, read-out: % efficacy dat): 0%; Emax at 500 g/ha (Tetranychus urticae; Tetranychus urticae, 144 h, TETRUR, 500 g ai/ha, 6 dat, read-out: % efficacy dat): 0%; Emax at 100 g/ha (Myzus persicae; Myzus persicae, 144 h, MYZUPE, 100 g ai/ha, 6 dat, read-out: % efficacy dat): 0%
N#CC1(NC(=O)c2cc(-c3cnn(-c4c(Cl)cc(C(F)(C(F)(F)F)C(F)(F)F)cc4Cl)c3)sc2Br)CC1 [I-T1-2] | 100% | 100% | 100% | 100% | 100% | 100% | efficacy [1]: 100%; efficacy (Rhipicephalus sanguineus): 100%; efficacy (Tetranychus urticae; application rate 20 g/ha): 90%; efficacy (Myzus persicae; application rate 100 g/ha, spray, after 5 days): 100%
Cn1cc(-c2cnn(-c3c(Cl)cc(C(F)(C(F)(F)F)C(F)(F)F)cc3Cl)c2)cc1C(=O)NC1(C#N)CC1 [I-T1-4] | – | 100% | – | 100% | 100% | 100% | –
N#CC1(NC(=O)c2csc(-c3cnn(-c4c(Cl)cc(C(F)(C(F)(F)F)C(F)(F)F)cc4Cl)c3)n2)CC1 [I-T1-5, N-(1-cyanocyclopropyl)-2-{1-[2,6-dichloro-4-(1,1,1,2,3,3,3-heptafluoropropan-2-yl)phenyl]-1H-pyrazol-4-yl}-1,3-thiazole-4-carboxamide] | – | – | 90% | – | 100% | 80% | pest or weed control at 100 g/ha (Phaedon cochleariae; Phaedon cochleariae, 168 h): 100%
O=C(NCc1ccccc1)c1cc(-c2cnn(-c3c(Cl)cc(C(F)(C(F)(F)F)C(F)(F)F)cc3Cl)c2)sc1Br [I-T1-6] | 100% | 100% | – | – | 100% | 95% | –
O=C(NC1CC1)c1nc(-c2cnn(-c3c(Cl)cc(C(F)(C(F)(F)F)C(F)(F)F)cc3Cl)c2)sc1Cl [I-T1-7] | – | 100% | – | 83% | – | – | –
O=C(NC1CC1)c1csc(-c2cnn(-c3c(Cl)cc(C(F)(C(F)(F)F)C(F)(F)F)cc3Cl)c2)n1 [I-T1-8] | – | – | – | 83% | 100% | 80% | –
O=C(NC1CC1)c1cc(-c2cnn(-c3c(Cl)cc(C(F)(C(F)(F)F)C(F)(F)F)cc3Cl)c2)sc1I [I-T1-14] | 100% | 100% | 100% | 100% | 100% | 100% | efficacy [1]: 100%; efficacy (Rhipicephalus sanguineus): 100%; efficacy (Tetranychus urticae; application rate 100 g/ha): 100%
N#CC1(NC(=O)c2cc(-c3cnn(-c4c(Cl)cc(C(F)(C(F)(F)F)C(F)(F)F)cc4Cl)c3)sc2I)CC1 [I-T1-15] | 100% | 100% | 100% | 100% | 100% | 100% | efficacy (Rhipicephalus sanguineus): 80%; efficacy (Tetranychus urticae; application rate 20 g/ha): 90%; efficacy (Tetranychus urticae; application rate 100 g/ha): 100%
N#CC1(NC(=O)c2cc(-c3cnn(-c4c(Cl)cc(C(F)(C(F)(F)F)C(F)(F)F)cc4Cl)c3)sc2Cl)CC1 [I-T1-17, 2-chloro-N-(1-cyanocyclopropyl)-5-{1-[2,6-dichloro-4-(1,1,1,2,3,3,3-heptafluoropropan-2-yl)phenyl]-1H-pyrazol-4-yl}thiophene-3-carboxamide] | – | – | – | – | – | – | pest or weed control at 100 g/ha (Spodoptera frugiperda; Spodoptera frugiperda, 168 h): 100%; pest or weed control at 100 g/ha (Phaedon cochleariae; Phaedon cochleariae, 168 h): 100%; efficacy (Tetranychus urticae; application rate 20 g/ha): 100%; efficacy (Tetranychus urticae; application rate 100 g/ha): 100%
CN(C(=O)c1cc(-c2cnn(-c3c(Cl)cc(C(F)(C(F)(F)F)C(F)(F)F)cc3Cl)c2)sc1Cl)C1(C#N)CC1 [I-T1-18, 2-chloro-N-(1-cyanocyclopropyl)-5-{1-[2,6-dichloro-4-(1,1,1,2,3,3,3-heptafluoropropan-2-yl)phenyl]-1H-pyrazol-4-yl}-N-methylthiophene-3-carboxamide] | – | – | – | – | – | – | pest or weed control at 100 g/ha (Spodoptera frugiperda; Spodoptera frugiperda, 168 h): 100%; pest or weed control at 100 g/ha (Phaedon cochleariae; Phaedon cochleariae, 168 h): 100%
